# Results published in patent US10172905B1, “Treatment of protein degradation disorders” (President and Fellows of Harvard College, priority 2005, dated 2019).
# Read-outs that look alike come from different tables or passages of the source. Non-standard residues stand in square brackets, D forms with d. Residues, ends and D or L forms follow the SMILES beside them. Aoe = N[C@@H](CCCCCC(=O)[C@@H]1CO1)C(=O)O
# What was measured:
# [1] = biological target: T1, HDAC6 (Homo sapiens, UniProt Q9UBN7); settings: stated property of control compound; cited from earlier work
# T1 sequence (Q9UBN7 1-1215): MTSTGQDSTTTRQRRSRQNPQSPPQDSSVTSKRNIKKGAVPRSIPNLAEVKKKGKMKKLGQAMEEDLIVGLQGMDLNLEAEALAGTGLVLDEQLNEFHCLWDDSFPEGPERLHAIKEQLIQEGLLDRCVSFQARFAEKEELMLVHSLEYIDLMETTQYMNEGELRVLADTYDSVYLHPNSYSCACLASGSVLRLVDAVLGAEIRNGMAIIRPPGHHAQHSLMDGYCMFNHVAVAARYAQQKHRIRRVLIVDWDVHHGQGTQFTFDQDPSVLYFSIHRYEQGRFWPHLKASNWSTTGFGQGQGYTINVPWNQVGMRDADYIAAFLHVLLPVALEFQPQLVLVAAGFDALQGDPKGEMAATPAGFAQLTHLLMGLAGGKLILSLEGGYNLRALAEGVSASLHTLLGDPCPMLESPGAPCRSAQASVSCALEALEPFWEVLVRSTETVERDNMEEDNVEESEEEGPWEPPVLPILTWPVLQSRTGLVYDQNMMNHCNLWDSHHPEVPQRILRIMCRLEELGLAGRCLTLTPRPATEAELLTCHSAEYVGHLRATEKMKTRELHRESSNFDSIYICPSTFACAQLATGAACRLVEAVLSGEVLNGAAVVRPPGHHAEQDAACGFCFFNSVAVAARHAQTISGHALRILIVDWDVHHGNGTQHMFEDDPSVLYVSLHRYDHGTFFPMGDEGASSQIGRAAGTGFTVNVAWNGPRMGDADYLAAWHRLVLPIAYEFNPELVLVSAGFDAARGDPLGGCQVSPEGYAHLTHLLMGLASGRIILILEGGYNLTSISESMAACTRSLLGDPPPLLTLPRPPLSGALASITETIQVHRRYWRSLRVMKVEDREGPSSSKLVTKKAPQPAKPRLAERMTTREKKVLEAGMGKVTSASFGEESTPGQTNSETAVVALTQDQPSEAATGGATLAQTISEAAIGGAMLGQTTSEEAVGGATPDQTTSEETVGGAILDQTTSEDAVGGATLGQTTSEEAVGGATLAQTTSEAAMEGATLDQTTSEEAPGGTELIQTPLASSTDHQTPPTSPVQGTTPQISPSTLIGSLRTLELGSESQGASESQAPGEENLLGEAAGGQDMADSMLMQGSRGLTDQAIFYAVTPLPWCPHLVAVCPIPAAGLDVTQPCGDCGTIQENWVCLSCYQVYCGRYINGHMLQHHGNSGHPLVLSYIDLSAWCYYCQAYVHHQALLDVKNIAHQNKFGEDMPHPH
# [2] = system: JNK phosphorylation and caspase/PARP cleavage; assay: Western blotting for p21Cip1, p-JNK, caspases and PARP; type: cell-based, human; settings: MM.1S cells, tubacin 5 μM and/or bortezomib 5 nM, 24 h
# Experimental: (§1) MM cells were cultured with Velcade and/or Tubacin; harvested; washed; and lysed using lysis buffer: 50 mM Tris-HCl (pH 7.4), 150 mM NaCl, 1% NP-40, 5 mM EDTA, 5 mM NaF, 2 mM Na3VO4, 1 mM PMSF, 5 μg/ml leupeptine, and 5 μg/ml aprotinin. Cell lysates were subjected to SDS-PAGE, transferred to PVDF membrane (Bio-Rad Laboratories, Hercules, Calif.), and immunoblotted with Abs against specific proteins.
# (§2) Cells cultured with tubacin and/or bortezomib were harvested; washed, and lysed using lysis buffer: 50 mM Tris-HCl (pH 7.4), 150 mM NaCl, 1% NP-40, 5 mM EDTA, 5 mM NaF, 1 mM Na3VO4, 1 mM PMSF, 5 μg/ml leupeptine, and 5 μg/ml aprotinin. Whole cell lysates were subjected to SDS-PAGE, transferred to nitrocellulose membrane (Bio-Rad Laboratories, Hercules, Calif.), and immunoblotted with specific Abs (31). Western blotting was done using anti-HDAC6, acetylated lysine, acetylated histone H3, acetylated histone H4, ubiquitin (Ub), phospho-SAPK (JNK), caspase-8 caspase-9, caspase-3, and PARP Abs (Cell Signaling, Beverly, Mass.); with anti-α-tubulin Ab (Santa Cruz Biotechnology, Santa Cruz, Calif.); as well as with anti-dynein Ab (Sigma, Saint Louis, Mo.). For immunoprecipitation, whole cell lysates were incubated with anti-Ub or dynein Abs overnight at 4° C., and then incubated with protein A/G PLUS-Agarose (Santa Cruz Biotechnology) for 2 h at 4° C., as in our prior study (31). Immunoprecipitates were then subjected to Western blotting for detection of HDAC6 and dynein.
# [3] = system: MM.1S cells and RPMI cells; assay: Inhibition of protein catabolism in myeloma cells; type: cell-based; settings: FIG. 18
# [4] = system: patients with refractory relapsed MM; settings: 202 patients; cited from earlier work
# [5] = system: RPMI8226 cells; settings: 24 h
# Experimental: The inhibitory effect of bortezomib and/or tubacin on MM cell growth was assessed by measuring 3-(4,5-dimethylthiazol-2-yl)-2,5-diphenyl tetrazolium bromide (MTT) dye absorbance, as described previously (33). Cells from 48 h cultures were pulsed with 10 μl of 5 mg/ml MTT to each well for the last 4 h of 48 h cultures, followed by 100 μl isopropanol containing 0.04N HCl. Absorbance was measured at 570 nm using a spectrophotometer (Molecular Devices Corp., Sunnyvale Calif.). All experiments were performed in quadruplicate.
# [6] = system: MM.1S cells; assay: Cell cycle profile by flow cytometry (PI staining); type: cell-based, human; settings: bortezomib 5 nM alone, 24 h; increased from 14.2%
# Experimental: […] Cells were then stained with propidium iodine (PI, Sigma) (5 μg/ml) and cell cycle profile was determined using program M software on an Epics flow cytometer (Coulter Immunology, Hialeah, Fla.) (44).
# [7] = system: MM.1S and RPMI8226 cells; assay: [3H]-thymidine uptake of MM cells adherent to BMSCs; type: cell-based, human; settings: MM cells adherent to BMSCs, 24 h
# Experimental: […] DNA synthesis was measured as described above.
# After treatment, DNA synthesis was measured by [^3H]-thymidine (Perkin Elmer, Boston Mass.) uptake, as previously described (44). All experiments were performed in quadruplicate.
# [8] = system: MM.1S and RPMI cells; assay: Synergy with Velcade/Bortezomib in myeloma cell lines; type: cell-based
# [9] = system: tubulin acetylation versus lysine acetylation; assay: Immunofluorescence assay for acetylated tubulin versus acetylated lysine; type: cell-based; settings: cells not given
# From the text: The present invention provides an immunofluorescence-based assay for identifying test agents with HDAC and/or TDAC inhibitory activity. The inventive assay is based on the use of specific antibodies for acetylated tubulin and acetylated lysine (i.e., a marker for acetylated histones). […] As described above, any type of agent, including small molecules, polymers, biomolecules, proteins, peptides, polynucleotides, etc., may be screened using the inventive assay. In certain embodiments, small molecules are screened. In certain particular embodiments, the small molecules are tubacin-like or are tubacin derivatives. In certain embodiments, the small molecules are compounds of the present invention. The test agents may also be small molecules purchased, prepared through traditional synthetic techniques, prepared through combinatorial chemistry techniques, or obtained from historical chemical collections. In certain embodiments, the test agents are biomolecules. In other embodiments, the test agents are proteins or peptides. In yet other embodiments, the test agents are polynucleotides. In certain embodiments, the test agents are polymers.
# The assay involves contacting cells with a specific concentration of the test agent under specific conditions. […] There particular parameters may be determined by the operator or scientist conducting the assay as would be appreciated by one of skill in this art. After a determined time of incubation with the test compound, the cells are treated with a first primary antibody directed against acetylated tubulin and a second primary antibody directed against acetylated lysine. […] The signal from each of the secondary antibodies is measured and optionally quantitated to determine the amount of TDAC and HDAC inhibition under the specified conditions with the test agent. Optionally, the extent of inhibition is determined relative to a control in which no test agent was added. In certain embodiments, the secondary antibody is left out and the primary antibodies are uniquely labeled for identification and optionally quantification. […]
# [10] = system: MM.1S cells; assay: MTT assay with niltubacin or HDAC6 siRNA, with or without bortezomib; type: cell-based, human; settings: niltubacin 2.5 and 5 μM, 5 nM bortezomib
# Experimental: The inhibitory effect of bortezomib and/or tubacin on MM cell growth was assessed by measuring 3-(4,5-dimethylthiazol-2-yl)-2,5-diphenyl tetrazolium bromide (MTT) dye absorbance, as described previously (33). […] All experiments were performed in quadruplicate.
# MM.1S cells were transiently transfected with HDAC6 siRNA (Dharmacon Inc., Lafayette, Colo.) using “Cell Line Nucleofecto™ Kit V,” according to manufacturer's (Amaxa Biosystems, Gaithersburg, Md.) instructions (33). Following transfection, MM.1S cells were subjected to Western blotting and MTT assay, in the presence or absence of bortezomib.
# [11] = biological target: T1, HDAC6; assay: Western blotting with anti-acetylated lysine / HDAC6 Abs; type: cell-based; set-up: MM.1S, U266, INA-6, RPMI8226, and RPMI-LR5 MM cell lines constitutively express HDAC6; endogenous in cells; host or cells: MM.1S, RPMI8226 and other MM cell lines; MM patient BMPCs/PBMCs; settings: niltubacin 2.5 and 5 μM, 24 h, MM.1S cells
# Experimental: as §1, §2
structure (smiles),measurement,setting,value
CC(/C=C/C(=O)NO)=C\[C@@H](C)C(=O)c1ccc(N(C)C)cc1 [Trichostatin],inhibition of HDAC6,[1],potent inhibitor of both HDAC6 domains
O=C1N[C@@H](Cc2ccccc2)C(=O)N2CCC[C@@H]2C(=O)N[C@@H](CCCCCC(=O)[C@@H]2CO2)C(=O)N[C@H]1Cc1ccccc1 [trapoxin] (cyclo(FF[dP][Aoe])),inhibition of HDAC6,[1],does not inhibit HDAC6
CC(C)C[C@H](NC(=O)[C@H](Cc1ccccc1)NC(=O)c1cnccn1)B(O)O [bortezomib],phosphorylation of JNK and caspase/PARP cleavage,[2],"induces only modest phosphorylation of JNK as well as caspase-9, -8, -3 and PARP cleavage"
same,inhibition of protein catabolism,[3],potent inhibitors of protein catabolism
same,complete and near complete responses,[4],10%
same,patients who did not respond,[4],65%
same,responses,[4],35%
same,RPMI8226 cell death,[5]; 5 nM bortezomib alone,26%
same,RPMI8226 cell death,[5]; 10 nM bortezomib alone,66%
same,G2M phase MM.1S cells,[6],39.5%
same,"BMSC-induced [3H]-thymidine uptake / MM cell growth with BMSCs, single agent",[7],inhibits BMSC-induced [^3H]-thymidine uptake in a dose-dependent fashion
"Cc1[nH]c2ccccc2c1CCNCc1ccc(/C=C/C(=O)NO)cc1 [LBH589, reference compound]",toxicity and synergy with Bortezomib,[8]; MM.1S cells,toxicity and synergy
same,toxicity and synergy with Bortezomib,[8]; RPMI-8226 cells,toxicity and synergy
"O=C(CCCCCCC(=O)Nc1ccc(C2OC(CSc3nc(-c4ccccc4)c(-c4ccccc4)o3)CC(c3ccccc3)O2)cc1)NO (centres unmarked) [DHM-Tubacin, des(hydromethyl)-Tubacin]",specificity for tubulin acetylation versus lysine acetylation,[9],specificity
same,synergy with Velcade,[8]; MM.1S and RPMI cells,synergy
"O=C(O)CCCCCCC(=O)Nc1ccc([C@H]2O[C@@H](CSc3nc(-c4ccccc4)c(-c4ccccc4)o3)C[C@@H](c3ccc(CO)cc3)O2)cc1 [niltubacin, reference compound]",enhancement of cytotoxicity induced by bortezomib,[10],does not affect either acetylation of α-tubulin (FIG. 4F) or enhance cytotoxicity
same,acetylation of α-tubulin,[11],does not affect
